Assay results taken from ChEMBL document CHEMBL5727650, “Heteroaryl substituted aminopyridine compounds” (2020).

These compounds were tested against T1, Interleukin-1 receptor-associated kinase 4 (Homo sapiens, UniProt Q9NWZ3) (assay: IRAK4 Inhibition Assay: The assays were performed in U-bottom 384-well plates. The final assay volume was 30 μL prepared from 15 μL additions of enzyme and substrates (fluoresceinated peptide and ATP) and test compounds in assay buffer (20 mM HEPES pH 7.2, 10 mM MgCl2, 0.015% Brij 35 and 4 mM DTT). The reaction was initiated by the combination of IRAK4 with substrates and test compounds. The reaction mixture was incubated at room temperature for 60 min. and terminated by adding 45 μL of 35 mM EDTA to each sample. The reaction mixture was analyzed on the Caliper LABCHIP® 3000 (Caliper, Hopkinton, Mass.) by electrophoretic separation of the fluorescent substrate and phosphorylated product. Inhibition data were calculated by comparison to no enzyme control reactions for 100% inhibition and vehicle-only reactions for 0% inhibition. The final concentrations of reagents in the assays are ATP, 500 μM; FL-IPTSPITTTYFFFKKK peptide 1.5 μM; IRAK4, 0.6 nM; and DMSO, 1.6%.).
T1 sequence (Q9NWZ3 whole entry): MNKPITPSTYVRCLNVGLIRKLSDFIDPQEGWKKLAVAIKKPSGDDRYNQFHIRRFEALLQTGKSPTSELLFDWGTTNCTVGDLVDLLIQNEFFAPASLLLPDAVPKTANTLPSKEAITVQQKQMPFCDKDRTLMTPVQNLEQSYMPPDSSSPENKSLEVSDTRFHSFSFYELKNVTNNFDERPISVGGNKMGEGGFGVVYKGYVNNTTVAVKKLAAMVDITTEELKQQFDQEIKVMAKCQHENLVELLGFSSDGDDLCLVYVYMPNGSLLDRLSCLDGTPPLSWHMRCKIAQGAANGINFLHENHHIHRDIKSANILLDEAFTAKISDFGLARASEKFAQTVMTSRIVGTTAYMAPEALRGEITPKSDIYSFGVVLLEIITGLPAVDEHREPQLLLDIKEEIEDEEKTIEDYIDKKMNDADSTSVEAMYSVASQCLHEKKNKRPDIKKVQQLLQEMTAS

SMILES	IC50 [nM]
CCCNc1cc(-c2cnn3cc(Cl)cnc23)ncc1C(=O)NC[C@@H](F)C(C)(C)O	5
CC1(Nc2cc(-c3cnc4cc(Cl)cnn34)ncc2C(=O)NC[C@H](F)C(C)(C)O)CC1	2
CC(C)(O)[C@H](F)CNC(=O)c1cnc(-c2cnn3cc(Cl)cnc23)cc1Nc1ccn(CC(F)F)c1	2
CC(C)(O)[C@H](F)CNC(=O)c1cnc(-c2cnn3cc(C#N)cnc23)cc1Nc1ccn(CC(F)F)c1	2
CC(C)(C)Nc1cc(-c2cnc3cc(C#N)cnn23)ncc1C(=O)NC[C@@H](F)C(C)(C)O	2
COC(C)(C)[C@H]1CC[C@H](NC(=O)c2cnc(-c3cnc4cc(Cl)cnn34)cc2NC2COC2)CC1	7
CC(C)(O)[C@H](F)CNC(=O)c1cnc(-c2cnn3cc(Cl)cnc23)cc1NC12CC(C1)C2	9

The remaining compounds from weak to strong by IC50, led by results:

IC50 [nM]	SMILES
15	CC(=O)N[C@H]1CC[C@H](NC(=O)c2cnc(-c3cnn4cc(C#N)cnc34)cc2NC(C)C)CC1
13	CC(C)(O)[C@H](F)CNC(=O)c1cnc(-c2cnn3cc(C#N)cnc23)cc1NC1CCC(F)(F)C1O (some centres not stated)
12	CC(C)(F)CNc1cc(-c2cnn3cc(C#N)cnc23)ncc1C(=O)NC[C@@H](F)C(C)(C)O
2	CC(C)(O)[C@H](F)CNC(=O)c1cnc(-c2cnn3cc(C#N)cnc23)cc1NC1CCC1
1	CC(C)(O)[C@H](F)CNC(=O)c1cnc(-c2cnn3cc(C#N)cnc23)cc1Nc1ccc(C(N)=O)cc1
